Measurements taken from patent EP4745135A1 (Gluetacs Therapeutics (Shanghai) Co., Ltd., priority 2023, dated 2025).

Molecular target: T1, human Cereblon WT GST-tagged protein (Homo sapiens, UniProt Q96SW2)
T1 construct: purchased CISBIO 64BDCRBNPEH
Experiment: CRBN-binding affinity, HTRF (CEREBLON BINDING kit)
Details: for inhibition at 0.5 µM: read-out: Inhibition Rate at 0.5 µM (%); for inhibition at 2 µM: read-out: Inhibition Rate at 2 µM (%); for IC50: CRBN binding, HTRF, 3 hours at room temperature, read-out: HTRF IC50
Procedure: The CEREBLON BINDING kits (specification: 10,000 tests; product number: Catalog # 64BDCRBNPEH; CISBIO company) was used to determine the CRBN binding ability of the compounds to be tested through a HTRF method (homogeneous time-resolved fluorescence). The specific methods are as follows: • 1. […] Specifically, diluent #9 (1X) solution was used as the diluent, and multiple concentration gradients were set. […] Then, 2.5 µL of human Cereblon WT GST-tagged protein solution was added to each well. Finally, 5 µL of the thoroughly mixed Thalidomide-Re reagent and GST Eu antibody working solution were added to each of the aforementioned wells. […] The blank control wells were sequentially added with 2.5 µL of diluent #9 (1X) solution, 2.5 µL of PROTAC binding buffer, and 5 µL of thoroughly mixed Thalidomide-Re reagent and GST Eu antibody working solution. • 4.

T1 sequence (Q96SW2 whole entry): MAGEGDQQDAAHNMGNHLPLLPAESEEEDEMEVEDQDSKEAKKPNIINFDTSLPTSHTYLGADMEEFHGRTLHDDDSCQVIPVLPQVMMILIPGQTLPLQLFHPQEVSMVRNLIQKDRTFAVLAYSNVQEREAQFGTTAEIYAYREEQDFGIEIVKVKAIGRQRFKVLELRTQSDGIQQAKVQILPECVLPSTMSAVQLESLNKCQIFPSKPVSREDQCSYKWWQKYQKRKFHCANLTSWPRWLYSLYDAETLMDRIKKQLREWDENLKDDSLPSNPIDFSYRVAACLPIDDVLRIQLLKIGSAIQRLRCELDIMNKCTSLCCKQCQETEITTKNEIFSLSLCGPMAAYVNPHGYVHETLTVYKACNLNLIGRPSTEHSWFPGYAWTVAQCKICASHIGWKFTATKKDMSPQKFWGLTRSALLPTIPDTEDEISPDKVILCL

SMILES | inhibition at 0.5 µM | inhibition at 2 µM | IC50
O=C1CCC(N2Cc3cc(CN4CCN(c5ncnc6sccc56)CC4)ccc3C2=S)C(=O)N1 (stereo not drawn) [GT-09280, 3-(5-((4-(thieno[2,3-d]pyrimidin-4-yl)piperazin-1-yl)methyl)-1-thioxoisoindolin-2-yl)piperidine-2,6-dione] | 80 to 100% | 80 to 100% | –
O=C1CCC(N2Cc3c(CN4CCN(c5nc6c(c(N7CCNCC7)n5)SCC6)CC4)cccc3C2=S)C(=O)N1 (stereo not drawn) [GT-09035, 3-(4-((4-(4-(piperazin-1-yl)-6,7-dihydrothieno[3,2-d]pyrimidin-2-yl)piperazin-1-yl)methyl)-1-thioxoisoindolin-2-yl)piperidine-2,6-dione] | 60 to 80% | 80 to 100% | –
O=C1CCC(N2Cc3ccc(CN4CCN(c5nsc6ccccc56)CC4)cc3C2=S)C(=O)N1 (stereo not drawn) [GT-05040, 3-(6-((4-(benzo[d]isothiazol-3-yl)piperazin-1-yl)methyl)-1-thioxoisoindolin-2-yl)piperidine-2,6-dione] | – | – | 0.1 to 0.5 µM
O=C1CCC(N2Cc3cc(CN4CCN(c5noc6cc(F)ccc56)CC4)ccc3C2=S)C(=O)N1 (stereo not drawn) [GT-09257] | 60 to 80% | 80 to 100% | –
O=C1CCC(N2Cc3ccc(CN4CCc5sccc5C4)cc3C2=S)C(=O)N1 (stereo not drawn) [GT-05039, 3-(6-((6,7-dihydrothieno[3,2-c]pyridin-5(4H)-yl)methyl)-1-thioxoisoindolin-2-yl)piperidine-2,6-dione] | – | – | 0.1 to 0.5 µM
Cc1sc2ncnc(N3CCN(Cc4ccc5c(c4)CN(C4CCC(=O)NC4=O)C5=S)CC3)c2c1C (stereo not drawn) [GT-09285, 3-(5-((4-(5,6-dimethylthieno[2,3-d]pyrimidin-4-yl)piperazin-1-yl)methyl)-1-thioxoisoindolin-2-yl)piperidine-2,6-dione] | 80 to 100% | 80 to 100% | –
O=C1CCC(N2Cc3cc(CN4CCN(c5ncnc(Cl)c5Cl)CC4)ccc3C2=S)C(=O)N1 (stereo not drawn) [GT-09254, 3-(5-((4-(5,6-dichloropyrimidin-4-yl)piperazin-1-yl)methyl)-1-thioxoisoindolin-2-yl)piperidine-2,6-dione] | 60 to 80% | 80 to 100% | –
O=C1CCC(N2Cc3cc(CN4CCN(c5cc(Cl)nnc5Cl)CC4)ccc3C2=S)C(=O)N1 (stereo not drawn) [GT-09248, 3-(5-((4-(3,6-dichloropyridazin-4-yl)piperazin-1-yl)methyl)-1-thioxoisoindolin-2-yl)piperidine-2,6-dione] | 60 to 80% | 80 to 100% | –
Cc1nc(C2=CCN(Cc3ccc4c(c3)CN(C3CCC(=O)NC3=O)C4=S)CC2)c2c3c(sc2n1)CCCC3 (stereo not drawn) [GT-09323, 3-(5-((4-(2-methyl-5,6,7,8-tetrahydrobenzo[4,5]thieno[2,3-d]pyrimidin-4-yl)-3,6-dihydropyridin-1(2H)-yl)methyl)-1-thioxoisoindolin-2-yl)piperidine-2,6-dione] | 40 to 53% | 80 to 100% | –
O=C1CCC(N2Cc3cc(CN4CCN(c5ncncn5)CC4)ccc3C2=S)C(=O)N1 (stereo not drawn) [GT-09249, 3-(5-((4-(1,3,5-triazin-2-yl)piperazin-1-yl)methyl)-1-thioxoisoindolin-2-yl)piperidine-2,6-dione] | 60 to 80% | 80 to 100% | –
O=C1CCC(N2Cc3c(CN4CCN(c5ccnc(F)c5F)CC4)cccc3C2=S)C(=O)N1 (stereo not drawn) [GT-08736, 3-(4-((4-(2,3-difluoropyridin-4-yl)piperazin-1-yl)methyl)-1-thioxoisoindolin-2-yl)piperidine-2,6-dione] | 60 to 80% | 80 to 100% | –
Cc1cc2c(C3CCN(Cc4ccc5c(c4)CN(C4CCC(=O)NC4=O)C5=S)CC3)ncnc2s1 (stereo not drawn) [GT-09305, 3-(5-((4-(6-methylthieno[2,3-d]pyrimidin-4-yl)piperidin-1-yl)methyl)-1-thioxoisoindolin-2-yl)piperidine-2,6-dione] | 60 to 80% | 80 to 100% | –
O=C1CCC(N2Cc3cc(CN4CC5CCC(C4)N5C(c4ccccc4)c4ccccc4)ccc3C2=S)C(=O)N1 (stereo not drawn) [GT-07849, 3-(5-((8-benzhydryl-3,8-diazabicyclo[3.2.1]octan-3-yl)methyl)-1-thioxoisoindolin-2-yl)piperidine-2,6-dione] | 30 to 40% | 60 to 80% | –
O=C1CCC(N2Cc3c(CN4CCC(N(c5ccccc5)c5ccccn5)CC4)cccc3C2=S)C(=O)N1 (stereo not drawn) [GT-08243, 3-(4-((4-(phenyl(pyridin-2-yl)amino)piperidin-1-yl)methyl)-1-thioxoisoindolin-2-yl)piperidine-2,6-dione] | 20 to 30% | 60 to 80% | –
O=C1CCC(N2Cc3cc(CN4CCC(c5cccc6cnccc56)CC4)ccc3C2=S)C(=O)N1 (stereo not drawn) [GT-09277, 3-(5-((4-(isoquinolin-5-yl)piperidin-1-yl)methyl)-1-thioxoisoindolin-2-yl)piperidine-2,6-dione] | 40 to 53% | 80 to 100% | –
O=C1CCC(N2Cc3c(CN4CCC(C5CCOc6cc(F)ccc65)CC4)cccc3C2=S)C(=O)N1 (stereo not drawn) [GT-08854, 3-(4-((4-(7-fluorochroman-4-yl)piperidin-1-yl)methyl)-1-thioxoisoindolin-2-yl)piperidine-2,6-dione] | 40 to 53% | 80 to 100% | –
O=C1CCC(N2Cc3cc(CN4CCN(c5cnnc(Cl)c5Cl)CC4)ccc3C2=S)C(=O)N1 (stereo not drawn) [GT-09255, 3-(5-((4-(5,6-dichloropyridazin-4-yl)piperazin-1-yl)methyl)-1-thioxoisoindolin-2-yl)piperidine-2,6-dione] | 80 to 100% | 80 to 100% | –
O=C1CCC(N2Cc3cc(CN4CCN(c5ncnc6scc(-c7ccccc7)c56)CC4)ccc3C2=S)C(=O)N1 (stereo not drawn) [GT-09297, 3-(5-((4-(5-phenylthieno[2,3-d]pyrimidin-4-yl)piperazin-1-yl)methyl)-1-thioxoisoindolin-2-yl)piperidine-2,6-dione] | 60 to 80% | 80 to 100% | –
Cc1cc(N2CCN(Cc3cccc4c3CN(C3CCC(=O)NC3=O)C4=S)CC2)ccn1 (stereo not drawn) [GT-08727, 3-(4-((4-(2-methylpyridin-4-yl)piperazin-1-yl)methyl)-1-thioxoisoindolin-2-yl)piperidine-2,6-dione] | 53 to 60% | 80 to 100% | –
O=C1CCC(N2Cc3cc(CN4CCN(c5nsc6ccccc56)CC4)ccc3C2=S)C(=O)N1 (stereo not drawn) [GT-05091, 3-(5-((4-(benzo[d]isothiazol-3-yl)piperazin-1-yl)methyl)-1-thioxoisoindolin-2-yl)piperidine-2,6-dione] | – | – | < 0.1 µM
Cc1sc2ncnc(N3CCCN(Cc4ccc5c(c4)CN(C4CCC(=O)NC4=O)C5=S)CC3)c2c1C (stereo not drawn) [GT-09287, 3-(5-((4-(5,6-dimethylthieno[2,3-d]pyrimidin-4-yl)-1,4-diazepan-1-yl)methyl)-1-thioxoisoindolin-2-yl)piperidine-2,6-dione] | 80 to 100% | 80 to 100% | –
CC(C)c1cc2c(N3CCN(Cc4ccc5c(c4)CN(C4CCC(=O)NC4=O)C5=S)CC3)ncnc2s1 (stereo not drawn) [GT-09284, 3-(5-((4-(6-isopropylthieno[2,3-d]pyrimidin-4-yl)piperazin-1-yl)methyl)-1-thioxoisoindolin-2-yl)piperidine-2,6-dione] | 40 to 53% | 80 to 100% | –
Cc1ccc(N2CCN(Cc3ccc4c(c3)CN(C3CCC(=O)NC3=O)C4=S)CC2)c(C)c1 (stereo not drawn) [GT-08614, 3-(5-((4-(2,4-dimethylphenyl)piperazin-1-yl)methyl)-1-thioxoisoindolin-2-yl)piperidine-2,6-dione] | 30 to 40% | 60 to 80% | –
O=C1CCC(N2Cc3c(CN4CC5CCC(C4)N5C(c4ccccc4)c4ccccc4)cccc3C2=S)C(=O)N1 (stereo not drawn) [GT-08234, 3-(4-((8-benzhydryl-3,8-diazabicyclo[3.2.1]octan-3-yl)methyl)-1-thioxoisoindolin-2-yl)piperidine-2,6-dione] | 40 to 53% | 60 to 80% | –
O=C1CCC(N2Cc3cc(CN4CCc5sccc5C4)ccc3C2=S)C(=O)N1 (stereo not drawn) [GT-05093, 3-(5-((6,7-dihydrothieno[3,2-c]pyridin-5(4H)-yl)methyl)-1-thioxoisoindolin-2-yl)piperidine-2,6-dione] | – | – | < 0.1 µM
O=C1CCC(N2Cc3cc(CN4CCN(c5ccncc5Br)CC4)ccc3C2=S)C(=O)N1 (stereo not drawn) [GT-09236, 3-(5-((4-(3-bromopyridin-4-yl)piperazin-1-yl)methyl)-1-thioxoisoindolin-2-yl)piperidine-2,6-dione] | 60 to 80% | 80 to 100% | –
O=C1CCC(N2Cc3cc(CN4CCN(c5nc6c(c(N7CCOCC7)n5)SCC6)CC4)ccc3C2=S)C(=O)N1 (stereo not drawn) [GT-09330, 3-(5-((4-(4-morpholino-6,7-dihydrothieno[3,2-d]pyrimidin-2-yl)piperazin-1-yl)methyl)-1-thioxoisoindolin-2-yl)piperidine-2,6-dione] | 60 to 80% | 80 to 100% | –
O=C1CCC(N2Cc3cc(CN4CCN(c5c(F)cncc5Cl)CC4)ccc3C2=S)C(=O)N1 (stereo not drawn) [GT-09243, 3-(5-((4-(3-chloro-5-fluoropyridin-4-yl)piperazin-1-yl)methyl)-1-thioxoisoindolin-2-yl)piperidine-2,6-dione] | 60 to 80% | 80 to 100% | –
O=C1CCC(N2Cc3c(CN4CCC(c5noc6ccccc56)CC4)cccc3C2=S)C(=O)N1 (stereo not drawn) [GT-08816, 3-(4-((4-(benzo[d]isoxazol-3-yl)piperidin-1-yl)methyl)-1-thioxoisoindolin-2-yl)piperidine-2,6-dione] | 60 to 80% | 80 to 100% | –
